This note sets out measurements from patent US20260199323A1, “LIGAND COMPOUNDS FOR E3 UBIQUITIN LIGASE, PROTEIN DEGRADERS DEVELOPED ON BASIS OF LIGAND COMPOUNDS, AND USES THEREOF” (GLUETACS THERAPEUTICS (SHANGHAI) CO., LTD., priority 2021, published 2026).

Like-named read-outs stand apart in the source and are kept apart here.

The subject of assay [1] is Jurkat. Put plainly: CCK-8 tumor cell proliferation, Jurkat. The class given is cell-based, Human. The conditions noted are these: Homo sapiens, Table 19, IRAK4 inhibitor based, read-out: IC50 inhibiting proliferation of tumor cells, Jurkat. The method, then: (§1) The tumor cells used herein were cultured in a cell culture medium listed in table 4 at 37° C. in an incubator with 5% CO2. Prior to experimentation, all cells used were correctly identified by STR profiling, and tested negative for mycoplasma through routine screenings.
(§2) IC50 values of the compounds of the present disclosure (including the compounds in Tables 1 and 3, and compounds of examples) were measured using the Meilun Cell Counting Kit-8 kit from Dalian Meilun Biotech Co., Ltd. Assay details are as follows: tumor cells were seeded in a 96-well plate at a density listed in Table 5. After 24 h, 100 μL of the inoculated cells were treated with 0.5 μL of the compounds of the present disclosure (including the compounds in Tables 1 and 3, and compounds of examples) at 10 different successively decreasing concentrations (starting at the highest concentration of 10 μM; 5-fold serial dilutions). After the cells were treated with the compounds of the present disclosure for a period of time, the cell viability detection reagent was added to the culture medium for cell viability assessment according to the instructions provided with the CCK-8 kit. […] The growth inhibition of the compounds of the present disclosure on cells was plotted by Prism Graphpad software, and the IC50 values of the compounds of the present disclosure were calculated therefrom.

For assay [2], the system named is Kasumi-1. Briefly: CCK-8 tumor cell proliferation, Kasumi-1. Format: cell-based, Human. The conditions noted are these: Homo sapiens; Table 19, IRAK4 inhibitor based; Kasumi-1; read-out: IC50 inhibiting proliferation of tumor cells, Kasumi-1. The method, then:
as §1, §2

Assay [3] deals with Hep3B2.7-1. Put plainly: CCK-8 tumor cell proliferation, Hep3B2.7-1. Format: cell-based, Human. The following applies: Homo sapiens. The method, then:
as §1, §2

The subject of assay [4] is SW620. Put plainly: CCK-8 tumor cell proliferation, SW620. Format: cell-based, Human. The conditions noted are these: Homo sapiens, SW-620, SW620, read-out: IC50 inhibiting proliferation of tumor cells, SW620. In a few lines: (§3)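 Using the CCK-8 kit, viability of plated cells is assessed after exposure to compound across ten concentrations (5-fold serial dilution, top 10 μM) added at 24 h. IC50 is obtained by curve fitting of growth inhibition.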

The subject of assay [5] is CCRF-CEM. Put plainly: CCK-8 tumor cell proliferation, CCRF-CEM. Format: cell-based, Human. Details: IC50 for inhibiting the proliferation of tumor cells, CCRF-CEM: scale not given here. The conditions noted are these: for IC50: Homo sapiens, CCRF-CEM, read-out: IC50 inhibiting proliferation of tumor cells, CCRF-CEM. In a few lines:
as §3

The subject of assay [6] is CAL-62. Put plainly: CCK-8 tumor cell proliferation, CAL-62. The class given is cell-based, Human. Details: IC50 for inhibiting the proliferation of tumor cells, CAL-62: scale not given here. The conditions noted are these: for IC50: Homo sapiens, CAL-62, read-out: IC50 inhibiting proliferation of tumor cells, CAL-62. The gist of the method:
as §3

Assay [7] concerns LNcap. Put plainly: CCK-8 tumor cell proliferation, LNcap. The class given is cell-based, Human. The following applies: Homo sapiens; Table 19, IRAK4 inhibitor based; Lncap; read-out: IC50 inhibiting proliferation of tumor cells, Lncap. As for the experimental part:
as §1, §2

Assay [8] concerns NCI-H1975. Put plainly: CCK-8 tumor cell proliferation, NCI-H1975. The conditions noted are these: for IC50: Homo sapiens, Table 15, ALK inhibitor based, NCI-H1975, read-out: IC50 inhibiting proliferation of tumor cells, NCI-H1975. Format: cell-based, Human. The method, then: as §1, §2
Assay [9] concerns Vcap. Put plainly: CCK-8 tumor cell proliferation, Vcap. Format: cell-based, Human. The conditions noted are these: Table 7, designed based on BTK inhibitors; 96 h. The method, then: as §1, §2
Assay [10] relates to MM.1S. Put plainly: CCK-8 tumor cell proliferation, MM.1S. The class given is cell-based. The following applies: Homo sapiens, MM1.S; Table 18, FAK inhibitor based; MM.1S; read-out: IC50 inhibiting proliferation of tumor cells, MM.1S. The method, then: as §1, §2
Assay [11] has as its system SR. Briefly: CCK-8 tumor cell proliferation, SR. Format: cell-based, Human. The conditions noted are these: Homo sapiens; Table 15, ALK inhibitor based; SR; read-out: IC50 inhibiting proliferation of tumor cells, SR. The gist of the method: as §3
Assay [12] concerns PC-9. Put plainly: CCK-8 tumor cell proliferation, PC-9. Format: cell-based, Human. The conditions noted are these: Homo sapiens; Table 15, ALK inhibitor based; PC-9; read-out: IC50 inhibiting proliferation of tumor cells, PC-9.
Assay [13] has as its system MDA-MB-231. Put plainly: CCK-8 tumor cell proliferation, MDA-MB-231. The class given is cell-based, Human. The following applies: Homo sapiens; Table 15, ALK inhibitor based; MDA-MB-231; read-out: IC50 inhibiting proliferation of tumor cells, MDA-MB-231. In a few lines: as §3
Where [14] appears, read: Table 19, IRAK4 inhibitor based, Hep3B2.7-1, read-out: IC50 inhibiting proliferation of tumor cells, Hep3B2.7-1.
Where [15] appears, read: Table 19, IRAK4 inhibitor based.
[16] abbreviates: Table 7, designed based on BTK inhibitors, 96 h.

For the compound `O=C1CCC(N2Cc3cc(CN4CCN(c5ccc(-n6cc(NC(=O)c7coc(-c8ccnc(NCC(F)(F)F)c8)n7)c(C(F)F)n6)cc5)CC4)cc(F)c3C2=O)C(=O)N1` (stereo not drawn) [GT-04270, N-(3-(difluoromethyl)-1-(4-(4-((2-(2,6-dioxopiperidin-3-yl)-7-fluoro-1-oxoisoindolin-5-yl)methyl)piperazin-1-yl)phenyl)-1H-pyrazol-4-yl)-2-(2-((2,2,2-trifluoroethyl)amino)pyridin-4-yl)oxazole-4-carboxamide], the values for the IC50 in [1], in [2] and in [3] (setting [14]) were 100 to 500 nM, 100 to 500 nM and 500 to 1000 nM, respectively.

On to `O=C1CCC(N2Cc3c(ccc(CN4CCN(c5ccc(-n6cc(NC(=O)c7coc(-c8ccnc(NCC(F)(F)F)c8)n7)c(C(F)F)n6)cc5)CC4)c3F)C2=O)C(=O)N1` (stereo not drawn) [GT-04268, N-(3-(difluoromethyl)-1-(4-(4-((2-(2,6-dioxopiperidin-3-yl)-4-fluoro-1-oxoisoindolin-5-yl)methyl)piperazin-1-yl)phenyl)-1H-pyrazol-4-yl)-2-(2-((2,2,2-trifluoroethyl)amino)pyridin-4-yl)oxazole-4-carboxamide], for which the IC50 in assay [1] lay within 500 to 1000 nM; in [2], 100 to 500 nM; in assay [3] (setting [14]), 500 to 1000 nM.

For `O=C1CCC(N2Cc3c(CN4CCC(n5cc(NC(=O)c6coc(-c7ccnc(NCC8CC8)c7)n6)c(C(F)F)n5)CC4)cccc3C2=O)C(=O)N1` (stereo not drawn) [GT-04173, 2-(2-((cyclopropylmethyl)amino)pyridin-4-yl)-N-(3-(difluoromethyl)-1-(1-((2-(2,6-dioxopiperidin-3-yl)-1-oxoisoindolin-4-yl)methyl)piperidin-4-yl)-1H-pyrazol-4-yl)oxazole-4-carboxamide], the IC50 in [4] (setting [15]) fell in the range of 1000 to 5000 nM; in assay [5] (setting [15]) it was 1000 to 5000 nM; in [1], 500 to 1000 nM; in assay [6] (setting [15]), 1000 to 5000 nM; in assay [7], 100 to 500 nM.

For the compound `Nc1ncnc2c1c(-c1ccc(Oc3ccccc3)cc1)nn2C1CCN(Cc2cc(F)c3c(c2)CN(C2CCC(=O)NC2=O)C3=O)CC1` (stereo not drawn) [GT-03473, 3-(5-((4-(4-amino-3-(4-phenoxyphenyl)-1H-pyrazolo[3,4-d]pyrimidin-1-yl)piperidin-1-yl)methyl)-7-fluoro-1-oxoisoindolin-2-yl)piperidine-2,6-dione], in assay [5] (setting [16]), the “IC50 for inhibiting the proliferation of tumor cells, CCRF-CEM” value is “A+”. For the same compound, the “IC50 for inhibiting the proliferation of tumor cells, NCI-H1975” value in assay [8] (setting [16]) is on record as “A+”. The “IC50 for inhibiting the proliferation of tumor cells, Vcap” value in assay [9] is reported as “A+”.

As for `COc1cc(N2CCC(N(C)Cc3ccc4c(c3)CN(C3CCC(=O)NC3=O)C4=O)CC2)c(C)cc1Nc1ncc(Br)c(Nc2ccc3nccnc3c2P(C)(C)=O)n1` (stereo not drawn) [GT-03924, 3-(5-(((1-(4-((5-bromo-4-((5-(dimethylphosphoryl)quinoxalin-6-yl)amino)pyrimidin-2-yl)amino)-5-methoxy-2-methylphenyl)piperidin-4-yl)(methyl)amino)methyl)-1-oxoisoindolin-2-yl)piperidine-2,6-dione], in [8] (Table 11, designed based on EGFR inhibitors, 96 h), the “IC50 for inhibiting the proliferation of tumor cells, H1975” value was “A+”. Also, the “IC50 for inhibiting the proliferation of tumor cells, CAL-62” value in assay [6] (Table 11, designed based on EGFR inhibitors, 72 h) is given as “A+”.

In the case of `O=C1CCC(N2C(=O)c3ccc(CN4CCC(n5cc(NC(=O)c6coc(-c7ccnc(NCC(F)(F)F)c7)n6)c(C(F)F)n5)CC4)cc3C2=O)C(=O)N1` (stereo not drawn) [GT-04088, N-(3-(difluoromethyl)-1-(1-((2-(2,6-dioxopiperidin-3-yl)-1,3-dioxoisoindolin-5-yl)methyl)piperidin-4-yl)-1H-pyrazol-4-yl)-2-(2-((2,2,2-trifluoroethyl)amino)pyridin-4-yl)oxazole-4-carboxamide], the IC50 in assay [4] (setting [15]) is 100 to 500 nM; in assay [5] (setting [15]), under 50 nM; in assay [1], under 50 nM; in assay [6] (setting [15]) it was under 50 nM; in [7] it was 100 to 500 nM.

For `CNC(=O)c1ccccc1Nc1cc(Nc2cc(C)c(C3CCN(Cc4ccc5c(c4)CN(C4CCC(=O)NC4=O)C5=O)CC3)cc2OC(C)C)ncc1C(F)(F)F` (stereo not drawn) [GT-04078, 2-((2-((4-(1-((2-(2,6-dioxopiperidin-3-yl)-1-oxoisoindolin-5-yl)methyl)piperidin-4-yl)-2-isopropoxy-5-methylphenyl)amino)-5-(trifluoromethyl)pyridin-4-yl)amino)-N-methylbenzamide], the IC50 was under 50 nM in assay [10]; 100 to 500 nM in [4] (Table 18, FAK inhibitor based); under 50 nM in [5] (Table 18, FAK inhibitor based); under 50 nM in [6] (Table 18, FAK inhibitor based); under 50 nM in [3] (Table 18, FAK inhibitor based, HEP3B2.7-1, read-out: IC50 inhibiting proliferation of tumor cells, HEP3B2.7-1).

For the compound `O=C1CCC(N2C(=O)c3ccc(CN4CCC(n5cc(NC(=O)c6coc(-c7ccnc(NCC8CC8)c7)n6)c(C(F)F)n5)CC4)cc3C2=O)C(=O)N1` (stereo not drawn) [GT-04174, 2-(2-((cyclopropylmethyl)amino)pyridin-4-yl)-N-(3-(difluoromethyl)-1-(1-((2-(2,6-dioxopiperidin-3-yl)-1,3-dioxoisoindolin-5-yl)methyl)piperidin-4-yl)-1H-pyrazol-4-yl)oxazole-4-carboxamide], the IC50 in [4] (setting [15]) is 100 to 500 nM; in assay [5] (setting [15]), under 50 nM; in assay [1] it was 50 to 100 nM; in [6] (setting [15]), under 50 nM; in assay [7], 500 to 1000 nM.

As to `Cc1cc(Nc2ncc(Cl)c(Nc3ccccc3S(=O)(=O)C(C)C)n2)c(OC(C)C)cc1N1CCC(N(C)Cc2ccc3c(c2)CN(C2CCC(=O)NC2=O)C3=O)CC1` (stereo not drawn) [GT-03530, 3-(5-(((1-(4-((5-chloro-4-((2-(isopropylsulfonyl)phenyl)amino)pyrimidin-2-yl)amino)-5-isopropoxy-2-methylphenyl)piperidin-4-yl)(methyl)amino)methyl)-1-oxoisoindolin-2-yl)piperidine-2,6-dione], the IC50 in [11] was under 50 nM; in assay [8], 1000 to 5000 nM; in [12], 500 to 1000 nM; in [13], 500 to 1000 nM.

As for `C[C@@H](Oc1cc(-c2cnn(C3CCN(Cc4ccc5c(c4)CN(C4CCC(=O)NC4=O)C5=O)CC3)c2)cnc1N)c1c(Cl)ccc(F)c1Cl` (stereo partly drawn) [GT-02974, 3-(5-((4-(4-(6-amino-5-((R)-1-(2,6-dichloro-3-fluorophenyl)ethoxy)pyridin-3-yl)-1H-pyrazol-1-yl)piperidin-1-yl)methyl)-1-oxoisoindolin-2-yl)piperidine-2,6-dione], the IC50 is 50 to 100 nM in assay [11], 1000 to 5000 nM in assay [8], 1000 to 5000 nM in [12] and 1000 to 5000 nM in [13].

Take `CC(C)(O)c1cc2nc(C3CCN(Cc4cc5c(cc4F)C(=O)N(C4CCC(=O)NC4=O)C5)CC3)sc2cc1NC(=O)c1cccc(C(F)(F)F)n1` (stereo not drawn) [GT-04506, N-(2-(1-((2-(2,6-dioxopiperidin-3-yl)-6-fluoro-1-oxoisoindolin-5-yl)methyl)piperidin-4-yl)-5-(2-hydroxypropan-2-yl)benzo[d]thiazol-6-yl)-6-(trifluoromethyl)picolinamide]: the IC50 fell in the range of 100 to 500 nM in [5] (setting [15]), 50 to 100 nM in assay [1] and 100 to 500 nM in [7].
